Measured values taken from PubChem BioAssay AID179 (DTP/NCI, 2004).
pEC50, pIC50: −log10 of the molar value. Calls of active or inactive are those of the source.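 How the source made its calls: active means compounds giving half or more protection of infected cells from virus-caused growth loss, again on retest; inactive means the rest.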 Where a SMILES comes first, the peptide text is derived from it. [ ]: non-standard residue; d: D form. The star is where a group is joined. Phe(4-NO2) = N[CH](Cc1ccc([N+](=O)[O-])cc1)C(=O)O; Boc = CC(C)(C)OC(=O)*; OtBu = CC(C)(C)O*

Tested on: CEM cells HIV-1 protection, formazan growth assay
Experiment: NCI AIDS Antiviral Assay
Details: for pIC50: measured here: growth of uninfected CEM cells
How it was run: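 Protection of CEM cells against HIV-1 measured as cell growth via soluble formazan read-out, with five concentrations tested on both infected and uninfected cells; failure to protect may reflect toxicity.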

| Compound | pEC50 | pIC50 | outcome |
| --- | --- | --- | --- |
| CCOC(=O)/C(=C\c1ccc([N+](=O)[O-])cc1)P(=O)(OCC)OCC | < 4.69 | 4.99 | – |
| O=C1CC2(c3ccccc3)CCCCC2=NN1 (centres undefined) | < 3.70 | < 3.70 | – |
| CC(=O)N(C)c1ccc(N=CN(C)C)cc1 | < 3.70 | < 3.70 | – |
| COc1c(OC(C)=O)ccc(/C=C2\N=C(C)OC2=O)c1[N+](=O)[O-] | – | – | inactive |
| CC1(c2ccccc2)N=C(C(N)=O)c2[nH]cnc2N1 (centres undefined) | < 3.70 | < 3.70 | – |
| N#Cc1c(N)[nH]c2ccc(Sc3ccccc3)cc12 | < 4.15 | 7.08 | – |
| CCC1(CC(=O)N(C)C)C=CCN(C(=O)Oc2ccccc2)C1 (centres undefined) | < 4.23 | < 4.23 | – |
| CC(=O)NNc1nc(C)c(C(=O)NNC(=O)C(=O)Nc2ccc(C)cc2[N+](=O)[O-])s1 | < 4.08 | 4.40 | – |
| c1ccc(CSC2(SCc3ccccc3)CCCCC2)cc1 | < 3.70 | 4.11 | – |
| O=C(/C=C/c1ccc(O)cc1)c1cc(Cl)ccc1O | – | – | inactive |
| O=C(CCCl)NNC1=NCCCN1 | < 3.70 | < 3.70 | – |
| CCCCCCCCCCCCCCC(F)C(=O)OCC1OC(CO)(OC2OC(CO)C(O)C(O)C2O)C(O)C1O (centres undefined) | < 3.70 | 4.02 | – |
| O=C(CC1Sc2ccccc2NC1=O)Nc1cc(Cl)ccc1Cl (centres undefined) | < 4.15 | < 4.15 | – |
| O=C(Nc1nc2ncn(CCNCc3ccccc3)c2c(=O)[nH]1)c1ccccc1 | < 3.76 | 3.98 | – |
| O=c1[nH]nc(Nc2ccc(Cl)cc2)c2nnn(-c3ccc([N+](=O)[O-])cc3)c12 | < 3.70 | 4.17 | – |
| CCCC(C(=O)OCC(C)N1CCCC1(C)C)C1CCCC1 (centres undefined) | – | – | inactive |
| COC(=O)C(Cc1ccc([N+](=O)[O-])cc1)NC(=O)C(CC(=O)OC(C)(C)C)NC(=O)OC(C)(C)C (centres undefined) (Boc-Asp(OtBu)-[Phe(4-NO2)]-OMe; configuration not given here) | < 3.70 | 4.03 | – |
| CCOC(=O)NC(C(F)(F)F)(C(F)(F)F)P(=O)(OCC(C)C)OCC(C)C | < 3.70 | 5.27 | – |
| C=CCSC[C@H](NC(=O)COc1ccccc1)C(=O)NC(C(=O)OCc1ccc([N+](=O)[O-])cc1)=C(C)C | < 4.59 | < 4.59 | – |
| C1CCC2(CC1)C[N+]1(CCCC1)C1(CCC1)O2 | < 3.70 | < 3.70 | – |
| NC(=O)C(=CN1C(=O)/C(=C\c2cccc(O)c2)SC1=S)C(N)=O | < 3.70 | 3.97 | – |
| COc1cc(COC(=O)N(C)[C@@H](Cc2ccccc2)C(=O)O)c([N+](=O)[O-])cc1OC | < 3.22 | 3.52 | – |

| Compound | pEC50 | pIC50 | outcome |
| --- | --- | --- | --- |
| Nc1nc(N)c(CCCc2ccccc2)c(N)n1 | – | – | inactive |
| COc1ccc(COCC[C@H](C)OC2OC(CO[Si](C)(C)C(C)(C)C)C(O)C(O)C2O)cc1 (some centres undefined) | < 3.70 | 4.79 | – |
| O=C(O)/C(Cl)=C(\Cl)C(=O)NC1C2CC3CC(C2)CC1C3 (centres undefined) | – | – | inactive |
| O=C1NCC2(CCN(CC3COc4ccccc4O3)CC2)N1c1ccccc1 (centres undefined) | < 3.70 | < 3.70 | – |
| COC(=O)c1c(C)cccc1CC1Cc2c(C)cccc2C1=O (centres undefined) | < 3.70 | 4.38 | – |
| Cc1cc(C)nc(NS(=O)(=O)c2ccc(NC(=O)c3ccc(Cl)c4c(Nc5ccc(S(=O)(=O)Nc6nc(C)cc(C)n6)cc5)c5ccccc5nc34)cc2)n1 | < 4.34 | 4.61 | – |
| COc1ccc2c(c1OC)C(C=C(c1ccccc1)c1ccccc1)CN(C)C2 (centres undefined) | < 4.03 | 4.80 | – |
| O=C(Nc1ccc(N=Nc2ccccc2)cc1)Sc1ccccc1C(=O)O | – | – | inactive |
| CC1=C(C(=O)OC23CC4CC(CC(C4)C2)C3)C(c2ccccc2OC(F)F)C(C(=O)OC23CC4CC(CC(C4)C2)C3)=C(C)N1 (centres undefined) | < 4.00 | < 4.00 | – |
| Cc1cn(COCCN2C(=O)c3ccccc3C2=O)c(=O)[nH]c1=O | < 3.70 | < 3.70 | – |
| CCc1ccc(Cc2ccc(CC)c(NC(=O)C(=O)Cc3nc4ccccc4nc3C)c2CC)c(CC)c1NC(=O)C(=O)Cc1nc2ccccc2nc1C | < 4.87 | < 4.87 | – |
| C/C(=C\O[Si](C)(C)C)c1ccccc1 | < 3.70 | < 3.70 | – |
| O=C1OC2CSCC2O1 (centres undefined) | < 2.77 | < 2.77 | – |
| CCC[CH2][Sn]1([CH2]CCC)[O]Cc2nc(C)ccc2[O]1 | < 4.85 | 5.50 | – |
| NC(Cc1ccccc1)C(=O)N[C@H]1c2ccsc2/C(=N/O)[C@H]1O (some centres undefined) | < 3.70 | < 3.70 | – |
| O=C1c2ccccc2S(=O)(=O)c2cc(-c3nn[nH]n3)ccc21 | < 3.70 | < 3.70 | – |
| Nn1c(Cc2ccc([N+](=O)[O-])cc2)n[nH]c1=O | < 3.70 | < 3.70 | – |
| CCCn1c(SC)nc(COC(=O)NC)c1COC(=O)NC | < 3.70 | < 3.70 | – |
| CCOC(=O)/C(=C\c1cc(OC)ccc1OC)P(=O)(OCC)OCC | < 3.17 | 5.01 | – |
| CS(=O)(=O)c1[nH]nc2[nH]c(=O)[nH]c(=O)c12 | < 3.70 | < 3.70 | – |
| COS(=O)CCOC(=O)c1ccccc1SSc1ccccc1C(=O)OCCS(=O)OC (centres undefined) | 3.95 | < 3.70 | – |
| O=C1C=CC[C@H](/C=C/C[C@@H](O)C[C@H](O)/C=C/c2ccccc2)O1 | < 3.70 | 5.27 | – |

| Compound | pEC50 | pIC50 | outcome |
| --- | --- | --- | --- |
| CC1(C)OC2OC(COC(=O)C=[N+]=[N-])C3OC(C)(C)OC3C2O1 (centres undefined) | < 3.70 | < 3.70 | – |
| COc1ccc2c(c1)-c1nc(=O)n(CCCN(C)C)c3ccc([N+](=O)[O-])c(c13)N2 | < 6.00 | 6.45 | – |
| CCN=C(c1ccc(NC(=O)c2ccc(C(=O)Nc3ccc(C(=NCC)N(CC)CC)cc3)cc2)cc1)N(CC)CC | < 3.70 | 4.19 | – |
| O=C1CCCCCCCCCCC1CN1CCCCC1 (centres undefined) | – | – | inactive |
| CC1=NCCC[N-]CC[N-]CCCN=C1C.[Ni+2].[O-][Cl+3]([O-])([O-])O | < 3.70 | < 3.70 | – |
| CCOC(=O)C(NO)C(Sc1ccccc1)c1ccc(OC)cc1 (centres undefined) | – | – | inactive |
| O=C(c1ccccc1)N1CCC(Nc2cccnc2)O1 (centres undefined) | < 3.70 | 3.98 | – |
| Cc1nc2c(cc1C(=O)NN)c(=O)n(C)c(=O)n2C | < 3.70 | < 3.70 | – |
| COc1cc2c(c(OC)c1OC)CCC1C(=O)NN=C21 (centres undefined) | < 3.04 | 3.99 | – |
| O=c1c(O)c(-c2ccccc2)oc2ccccc12 | < 4.03 | 4.73 | – |
| COc1ccc(Oc2cc(CC3c4cc(OC)c(OC)cc4CCN3C)c([N+](=O)[O-])cc2OC)cc1OC (centres undefined) | – | – | inactive |
| CC(C)N(C(=O)C12C3C4C1C1C2C3C41I)C(C)C (centres undefined) | < 3.72 | < 3.72 | – |
| O=C1CN2C(Cl)(Cl)C2(c2ccccc2)c2cc(Cl)ccc2N1CC(F)(F)F (centres undefined) | < 3.70 | 4.53 | – |
| Cc1nc(C)c(C(=O)NNC(=O)c2ccccc2)cc1C(=O)NNC(=O)c1ccccc1 | < 3.70 | < 3.70 | – |
| O=C1/C(=C/c2ccc(O)cc2)NC(=S)N1CN1CCCCC1 | < 3.70 | 4.49 | – |
| Cc1cn(C2CCC(=O)C2)c(=O)[nH]c1=O (centres undefined) | – | – | inactive |
| C[n+]1c2cc(N)ccc2cc2ccc(N)cc21 (tested in a mixture with another compound) | < 3.70 | 6.50 | – |
| O=Cc1c(C(=O)O)[nH]c(=O)[nH]c1=O | < 3.70 | < 3.70 | – |
| N.N.NC(CS)C(=O)[O-].NC(CS)C(=O)[O-].[Pt+4] (centres undefined) | < 2.48 | < 2.48 | – |
| O=C(c1ccccc1)N1C(=S)N(c2ccc([N+](=O)[O-])cc2)C(=Nc2ccccc2)C1=Nc1ccccc1 | < 3.70 | 6.00 | – |
| COc1ccc(CCc2nccn2C)cc1OC | < 3.70 | < 3.70 | – |
| Nc1ccc2c(c1)Oc1ccc(N)cc1O2 | < 3.70 | < 3.70 | – |

| Compound | pEC50 | pIC50 | outcome |
| --- | --- | --- | --- |
| CCOC(=O)Nn1cnnc1C | < 3.70 | < 3.70 | – |
| CC1(c2cccc(C3CCC4(C=CC3=O)OCCO4)c2)OCCO1 (centres undefined) | < 3.70 | 5.72 | – |
| O=C(Nc1ccc(Cl)cc1)C(=O)C1=C(O)c2ccccc2OC1 | < 3.99 | < 3.99 | – |
| CCCCN1C(=O)[C@@H]2[C@H](c3ccccc3O)C(c3ccccc3O)[C@@H]2C1=O (some centres undefined) | < 3.86 | 4.52 | – |
| O=[N+]([O-])/C(Cl)=C/C(=C1/Nc2ccccc2O1)[N+](=O)[O-] | < 3.70 | 4.52 | – |
| CC(=N/NC(=S)N1CCCCC1)/C(C)=N\NC(=S)N1CCCCC1 | < 3.70 | 5.65 | – |
| Cc1nc2c(sc(=S)n2-c2ccccc2)c2nc3ccccc3n12 | < 5.68 | < 5.68 | – |
| COC(=O)C12CCC(C(=O)OC)(Cc3c(c4ccccc4n3S(=O)(=O)c3ccccc3)C1)C2=O (centres undefined) | < 3.70 | 4.07 | – |
| Nc1ncnc2c1sc1nc3ccccc3n12 | < 3.70 | < 3.70 | – |
| O=C(NCCN1CCOCC1)c1cn2c(ccc3sc4ccccc4c(=O)c32)n1 | < 3.70 | 5.45 | – |
| Cc1cccc(-n2c(C)nc3ccc(NC4OC(CO)C(O)C(O)C4O)cc3c2=O)c1 (centres undefined) | < 3.70 | < 3.70 | – |
| O=P1(Oc2ccccc2)OC[C@H]2S[C@H](c3ccccc3)C[C@H]2O1 (some centres undefined) | < 3.70 | < 3.70 | – |
| O=C(O)C(Cc1ccccc1)NCc1c(O)ccc2c(-c3ccccc3)cc(=O)oc12 (centres undefined) | < 3.70 | < 3.70 | – |
| S=C(N/N=C/c1ccccn1)N1CC2CCC(CC2)C1 | < 3.70 | 7.20 | – |
| CC(CCC#N)(CCC#N)C(=O)CC(O)(C(F)(F)F)C(F)(F)F | < 3.70 | 5.63 | – |
| CC1CCN(CCCCCNC(=O)C(c2ccccc2)C2CCCCC2)CC(C)(C)C1 (centres undefined) | < 4.00 | 4.38 | – |
| COc1ccc(C[C@H]2C(=O)OC[C@@H]2Cc2ccc(OC)c(OC)c2)cc1 | < 3.70 | 4.62 | – |
| O=S1(=O)OC(c2cc(Cl)c(O)c(Br)c2)(c2cc(Cl)c(O)c(Br)c2)c2ccccc21 | 3.42 | 3.30 | – |
| Cn1c(=O)c(C#N)c2n(c1=S)CCCCCCC2 | < 3.70 | 3.95 | – |
| COc1cc2c(c([N+](=O)[O-])c1)NCCS2 | < 3.70 | < 3.70 | – |
| CC(C)=CCC[C@@H](C)C1=C(O)C(Nc2ccccc2)=C(C)C(=O)C1=O | < 3.70 | 4.88 | – |
